Assay results published in patent US20090149485A1, “PYRIMIDINEDIONES AS TYROSINE KINASE INHIBITORS” (Jubilant Biosys Limited, priority 2006, published 2009).

Assays:
GSK3-alpha = molecular target: T1, GSK3-alpha (Homo sapiens, UniProt P49840); assay: GSK3-alpha Kinase-Glo Plus luminescent kinase assay; assay type: biochemical; details: 10 μM compound, n=3, read-out: % Inhibition at 10 μM α
T1 construct: purchased Upstate 14-492
Experimental: (§1) GSK3 assays were performed using Kinase-Glo® Plus Luminescent Kinase Assay Kit (Promega V3772/3/4 P), in assay buffer (50 mM HEPES, 30 mM Magnesium acetate, 1 mM EDTA and 1 mM EGTA, pH 7.5) in white 96-well-Optiplates (Perkin Elmer). In a typical assay reaction mix (40 μl final volume) contained 10 μl of test compound (dissolved in DMSO), 10 μl of GSM peptide substrate (Upstate Cat#12-533) 20M-GSK3-beta; 25 μM-GSK3-alpha were added followed by 10 μl of enzyme 40 ng/well-GSK3-beta (Upstate Cat#14-306); 30 ng/well-GSK3-alpha (Upstate Cat#14-492) and 1 μM ATP. After incubation at room temperature for 30 minutes, 40 μl of Kinase-Glo reagent was added to stop the reaction, followed by another 5 minutes incubation at room temperature. Luminescence was measured using Wallac 1450 MicroBeta® TriLux (PerkinElmer) Liquid Scintillation and Luminescence Counter. The activity is expressed as a difference of the consumed ATP and total ATP.

GSK3-beta = molecular target: T2, GSK3-beta (Homo sapiens, UniProt P49841); assay: GSK3-beta Kinase-Glo Plus luminescent kinase assay; assay type: biochemical; details: 10 μM compound; for inhibition at 10 µM: n=4, read-out: % Inhibition at 10 μM β
T2 construct: purchased Upstate 14-306
Experimental: To analyze the activity of the compounds, the said compounds were subjected to biochemical assays. The biochemical assays as performed by the undermentioned methods are used to evaluate the potency of the compounds. This potency data is the indication of the bioactivity of the organic compounds which are described as inhibitors of GSK3beta.
as §1

T2 sequence (P49841 whole entry): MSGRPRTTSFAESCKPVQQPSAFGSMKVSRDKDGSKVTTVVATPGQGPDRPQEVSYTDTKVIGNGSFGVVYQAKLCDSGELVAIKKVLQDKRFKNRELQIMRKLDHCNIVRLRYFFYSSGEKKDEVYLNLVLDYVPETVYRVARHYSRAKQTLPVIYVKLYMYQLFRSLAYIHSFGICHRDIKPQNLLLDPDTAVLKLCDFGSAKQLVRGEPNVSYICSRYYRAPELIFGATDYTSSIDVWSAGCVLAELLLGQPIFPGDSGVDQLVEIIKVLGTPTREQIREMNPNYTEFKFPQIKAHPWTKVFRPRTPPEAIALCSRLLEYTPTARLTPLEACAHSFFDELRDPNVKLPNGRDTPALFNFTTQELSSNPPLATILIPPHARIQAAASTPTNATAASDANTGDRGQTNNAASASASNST
T1 sequence (P49840 whole entry): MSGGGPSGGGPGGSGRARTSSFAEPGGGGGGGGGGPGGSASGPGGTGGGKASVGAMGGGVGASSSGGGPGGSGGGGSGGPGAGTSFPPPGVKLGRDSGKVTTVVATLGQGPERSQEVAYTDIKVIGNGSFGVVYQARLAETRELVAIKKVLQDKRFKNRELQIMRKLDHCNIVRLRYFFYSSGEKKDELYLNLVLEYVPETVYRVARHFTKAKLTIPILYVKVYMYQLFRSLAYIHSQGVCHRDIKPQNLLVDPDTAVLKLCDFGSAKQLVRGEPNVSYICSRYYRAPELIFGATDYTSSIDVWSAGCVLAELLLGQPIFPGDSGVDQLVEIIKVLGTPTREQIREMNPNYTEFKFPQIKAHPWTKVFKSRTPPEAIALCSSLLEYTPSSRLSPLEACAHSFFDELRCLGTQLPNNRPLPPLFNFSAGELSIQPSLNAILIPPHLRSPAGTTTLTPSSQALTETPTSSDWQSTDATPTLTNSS

SMILES	inhibition at 10 µM (GSK3-alpha) [%]	inhibition at 10 µM (GSK3-beta) [%]	% Inhibition at 10 μM β (GSK3-beta; n=4, 10 µM) [%]
CCOC(=O)Cn1cc(-c2ccco2)c(=O)[nH]c1=O [Compound 1, (2,4-Dioxo-5-furan-2-yl-3,4-dihydro-2H-pyrimidin-1-yl)-acetic Acid Ethyl Ester]	9	13	
N#Cc1cccc(Cn2c(=O)[nH]cc(-c3cccs3)c2=O)c1 [Compound 8, 3-(2,6-Dioxo-5-thiophen-2-yl-3,6-dihydro-2H-pyrimidin-1-ylmethyl)-benzonitrile]	54	78	
N#Cc1cccc(Cn2c(=O)[nH]cc(-c3ccco3)c2=O)c1 [Compound 9, 3-(5-furan-2-yl-2,6-dioxo-3,6-dihydro-2H-pyrimidin-1-ylmethyl)-benzonitrile]	22	64	
O=c1[nH]cc(-c2ccco2)c(=O)n1Cc1ccc([N+](=O)[O-])cc1 [Compound 12, 3-(4-nitro-benzyl)-5-furan-2-yl-1H-pyrimidine-2,4-dione]	55	75	
CCOC(=O)Cn1c(=O)[nH]cc(-c2ccco2)c1=O [Compound 13, (2,6-dioxo-5-furan-2-yl-3,6-dihydro-2H-pyrimidin-1-yl)-acetic Acid Ethyl Ester]	13	25	
O=c1[nH]cc(-c2ccco2)c(=O)n1Cc1ccccc1 [Compound 14, 3-benzyl-5-furan-2-yl-1H-pyrimidine-2,4-dione]	42	63	
N#Cc1ccc(Cn2c(=O)[nH]cc(-c3ccco3)c2=O)cc1 [Compound 15, 4-(2,6-dioxo-5-furan-2-yl-3,6-dihydro-2H-pyrimidin-1-ylmethyl)-benzonitrile]	14	21	
O=c1[nH]cc(-c2ccco2)c(=O)n1Cc1cc(F)cc(F)c1 [Compound 20, 3-(3,5-difluoro-benzyl)-5-furan-2-yl-1H-pyrimidine-2,4-dione]	11	53	

Further lines, results first:

inhibition at 10 µM (GSK3-alpha) [%]	inhibition at 10 µM (GSK3-beta) [%]	% Inhibition at 10 μM β (GSK3-beta; n=4, 10 µM) [%]	SMILES
68	77		CCOC(=O)Cn1cc(-c2cccs2)c(=O)[nH]c1=O [Compound 2, (2,4-Dioxo-5-thiophen-2-yl-3,4-dihydro-2H-pyrimidin-1-yl)-acetic acid Ethyl Ester]
11	66	68	O=c1[nH]c(=O)n(Cc2ccc(F)cc2)cc1-c1cccs1 [Compound 3, 1-(4-Fluoro-benzyl)-5-thiophen-2-yl-1H-pyrimidine-2,4-dione]
72	56		O=c1[nH]c(=O)n(Cc2ccc(F)cc2)cc1-c1ccco1 [Compound 4, 1-(4-Fluoro-benzyl)-5-furan-2-yl-1H-pyrimidine-2,4-dione]
17	46		N#Cc1ccc(Cn2cc(-c3ccco3)c(=O)[nH]c2=O)cc1 [Compound 5, 4-(2,4-Dioxo-5-furan-2-yl-3,4-dihydro-2H-pyrimidin-1-ylmethyl)-benzonitrile]
10	45		O=c1[nH]c(=O)n(Cc2ccccc2)cc1-c1cccs1 [Compound 6, 1-Benzyl-5-thiophen-2-yl-1H-pyrimidine-2,4-dione]
16	45		N#Cc1cccc(Cn2cc(-c3cccs3)c(=O)[nH]c2=O)c1 [Compound 7, 3-(2,4-dioxo-5-thiophen-2-yl-3,4-dihydro-2H-pyrimidin-1-ylmethyl)-benzonitrile]
6	13		O=c1[nH]cc(-c2cccs2)c(=O)n1Cc1ccc(F)cc1 [Compound 10, 3-(4-fluoro-benzyl)-5-thiophen-2-yl-1H-pyrimidine-2,4-dione]
16	46		O=c1[nH]cc(-c2ccco2)c(=O)n1Cc1ccc(F)cc1 [Compound 11, 3-(4-fluoro-benzyl)-5-furan-2-yl-1H-pyrimidine-2,4-dione]
8	58		O=c1[nH]cc(-c2cccs2)c(=O)n1Cc1ccc([N+](=O)[O-])cc1 [Compound 17, 3-(4-nitro-benzyl)-5-thiophen-2-yl-1H-pyrimidine-2,4-dione]
10	31		N#Cc1cccc(Cn2cc(-c3ccco3)c(=O)[nH]c2=O)c1 [Compound 18, 3-(5-furan-2-yl-2,4-dioxo-3,4-dihydro-2H-pyrimidin-1-ylmethyl)-benzonitrile]
15	23		N#Cc1ccc(Cn2cc(-c3cccs3)c(=O)[nH]c2=O)cc1 [Compound 19, 4-(2,4-dioxo-5-thiophen-2-yl-3,4-dihydro-2H-pyrimidin-1-ylmethyl)-benzonitrile]
